Reference: patent US9113629B2, “4-amino-6-(4-substituted-phenyl)-picolinates and 6-amino-2-(4-substituted-phenyl)-pyrimidine-4-carboxylates and their use as herbicides” (DOW AGROSCIENCES LLC, priority 2013, dated 2015)

System: test plant species in Direct Seeded Rice
Assay: Postemergence herbicidal activity in direct seeded rice (Table 13)
Type: in vivo
Conditions: BRAPP: broadleaf signalgrass, Brachiaria platyphylla; probit analysis
Description: Seeds or nutlets of the desired test plant species were planted in a soil matrix prepared by mixing a loam soil (43 percent silt, 19 percent clay, and 38 percent sand, with a pH of about 8.1 and an organic matter content of about 1.5 percent) and river sand in an 80 to 20 ratio. The soil matrix was contained in plastic pots with a surface area of 139.7 cm^2. When required to ensure good germination and healthy plants, a fungicide treatment and/or other chemical or physical treatment was applied. The plants were grown for 10-17 d in a greenhouse with an approximate 14-h photoperiod which was maintained at about 29° C. during the day and 26° C. during the night. Nutrients and water were added on a regular basis and supplemental lighting was provided with overhead metal halide 1000-Watt lamps as necessary. The plants were employed for testing when they reached the second or third true leaf stage. A weighed amount, determined by the highest rate to be tested, of each test compound was placed in 25 mL glass vials and dissolved in a volume of 97:3 v/v acetone-DMSO to obtain 12× stock solutions. […] The concentrated stock solutions were added to the spray solutions so that the final acetone and DMSO concentrations were 16.2% and 0.5%, respectively. Spray solutions were diluted to the appropriate final concentrations with the addition of 10 mL of an aqueous mixture of 1.5% (v/v) Agri-dex crop oil concentrate. […] Compound requirements are based upon a 12 mL application volume at a rate of 187 L/ha. Formulated compounds were applied to the plant material with an overhead Mandel track sprayer equipped with […] nozzles calibrated to deliver 187 L/ha over an application area of 0.503 square meters (m^2) at a spray height of 18 inches (43 cm) above average plant canopy height. Control plants were sprayed in the same manner with the solvent blank. The treated plants and control plants were placed in a greenhouse as described above and watered by sub-irrigation to prevent wash-off of the test compounds. After 20-22 days, the condition of the test plants, compared with that of the untreated plants, was determined visually and scored on a scale of 0 to 100 percent where 0 corresponds to no injury and 100 corresponds to complete kill. By applying the well-accepted probit analysis as described by J. Berkson in Journal of the American Statistical Society, 48, 565 (1953) and by D. Finney in “Probit Analysis” Cambridge University Press (1952), the above data can be used to calculate GR20, GR50, GR80 and GR90 values, which are defined as growth reduction factors that correspond to the effective dose of herbicide required to kill or control 20 percent, 50 percent, 80 percent or 90 percent, respectively, of a target plant.

| Structure (SMILES) | GR50 BRAPP | GR80 BRAPP |
| --- | --- | --- |
| COC(=O)c1nc(-c2ccc(I)cc2F)cc(N)c1Cl [Compound 159] | 3 g ai/ha | 8 g ai/ha |
| Nc1c(Cl)c(C(=O)O)nc(-c2ccc(I)cc2)c1Cl [Compound 173] | 8 g ai/ha | 26 g ai/ha |

Same assay, conditions: CYPSS: sedge (Cyperus difformis, esculentus, iria); probit analysis

| Structure (SMILES) | GR50 CYPSS | GR80 CYPSS |
| --- | --- | --- |
| COC(=O)c1nc(-c2ccc(I)cc2F)cc(N)c1Cl [Compound 159] | 2 g ai/ha | 5 g ai/ha |
| Nc1c(Cl)c(C(=O)O)nc(-c2ccc(I)cc2)c1Cl [Compound 173] | 2 g ai/ha | 4 g ai/ha |

Same assay, conditions: ECHSS: barnyardgrass (Echinochloa crus-galli), junglerice (Echinochloa colonum); probit analysis

| Structure (SMILES) | GR50 ECHSS | GR80 ECHSS |
| --- | --- | --- |
| COC(=O)c1nc(-c2ccc(I)cc2F)cc(N)c1Cl [Compound 159] | 2 g ai/ha | 4 g ai/ha |
| Nc1c(Cl)c(C(=O)O)nc(-c2ccc(I)cc2)c1Cl [Compound 173] | 12 g ai/ha | 33 g ai/ha |

Same assay, conditions: LEFSS: sprangletop (Leptochloa chinensis, Leptochloa dubia); probit analysis

| Structure (SMILES) | GR50 LEFSS | GR80 LEFSS |
| --- | --- | --- |
| COC(=O)c1nc(-c2ccc(I)cc2F)cc(N)c1Cl [Compound 159] | 12 g ai/ha | 19 g ai/ha |
| Nc1c(Cl)c(C(=O)O)nc(-c2ccc(I)cc2)c1Cl [Compound 173] | 24 g ai/ha | 47 g ai/ha |

Same assay, conditions: ORYSS: Oryza sativa (crop); probit analysis

| Structure (SMILES) | GR20 ORYSS |
| --- | --- |
| COC(=O)c1nc(-c2ccc(I)cc2F)cc(N)c1Cl [Compound 159] | 12 g ai/ha |
| Nc1c(Cl)c(C(=O)O)nc(-c2ccc(I)cc2)c1Cl [Compound 173] | 16 g ai/ha |

Same assay, conditions: SCPJU: Japanese bulrush, Scirpus juncoides; probit analysis

| Structure (SMILES) | GR50 SCPJU | GR80 SCPJU |
| --- | --- | --- |
| COC(=O)c1nc(-c2ccc(I)cc2F)cc(N)c1Cl [Compound 159] | 1 g ai/ha | 1 g ai/ha |
| Nc1c(Cl)c(C(=O)O)nc(-c2ccc(I)cc2)c1Cl [Compound 173] | 1 g ai/ha | 1 g ai/ha |

Same assay, conditions: SEBEX: hemp sesbania, Sesbania exaltata; probit analysis

| Structure (SMILES) | GR50 SEBEX | GR80 SEBEX |
| --- | --- | --- |
| COC(=O)c1nc(-c2ccc(I)cc2F)cc(N)c1Cl [Compound 159] | 1 g ai/ha | 1 g ai/ha |
| Nc1c(Cl)c(C(=O)O)nc(-c2ccc(I)cc2)c1Cl [Compound 173] | 1 g ai/ha | 1 g ai/ha |

Same assay, conditions: post-emergence, 504 h; BRAPP: broadleaf signalgrass, Brachiaria platyphylla; 35 g ai/ha; read-out: Visual Growth Reduction (%) 21 Days After Application BRAPP

| Structure (SMILES) | pest or weed control at 35 g/ha |
| --- | --- |
| COC(=O)c1nc(-c2ccc(I)cc2F)cc(N)c1Cl [Compound 159] | 95 to 100% |
| Nc1c(Cl)c(C(=O)O)nc(-c2ccc(I)cc2)c1Cl [Compound 173] | 75 to 84% |

Same assay, conditions: post-emergence, 504 h; BRAPP: broadleaf signalgrass, Brachiaria platyphylla; 70 g ai/ha; read-out: Visual Growth Reduction (%) 21 Days After Application BRAPP

| Structure (SMILES) | pest or weed control at 70 g/ha |
| --- | --- |
| COC(=O)c1nc(-c2ccc(I)cc2F)cc(N)c1Cl [Compound 159] | 95 to 100% |
| Nc1c(Cl)c(C(=O)O)nc(-c2ccc(I)cc2)c1Cl [Compound 173] | 95 to 100% |

Same assay, conditions: post-emergence, 504 h; CYPSS: sedge (Cyperus difformis, esculentus, iria); 35 g ai/ha; read-out: Visual Growth Reduction (%) 21 Days After Application CYPSS

| Structure (SMILES) | pest or weed control at 35 g/ha |
| --- | --- |
| COC(=O)c1nc(-c2ccc(I)cc2F)cc(N)c1Cl [Compound 159] | 95 to 100% |
| Nc1c(Cl)c(C(=O)O)nc(-c2ccc(I)cc2)c1Cl [Compound 173] | 95 to 100% |

Same assay, conditions: post-emergence, 504 h; CYPSS: sedge (Cyperus difformis, esculentus, iria); 70 g ai/ha; read-out: Visual Growth Reduction (%) 21 Days After Application CYPSS

| Structure (SMILES) | pest or weed control at 70 g/ha |
| --- | --- |
| COC(=O)c1nc(-c2ccc(I)cc2F)cc(N)c1Cl [Compound 159] | 95 to 100% |
| Nc1c(Cl)c(C(=O)O)nc(-c2ccc(I)cc2)c1Cl [Compound 173] | 95 to 100% |

Same assay, conditions: post-emergence, 504 h; ECHSS: barnyardgrass (Echinochloa crus-galli), junglerice (Echinochloa colonum); 35 g ai/ha; read-out: Visual Growth Reduction (%) 21 Days After Application ECHSS

| Structure (SMILES) | pest or weed control at 35 g/ha |
| --- | --- |
| COC(=O)c1nc(-c2ccc(I)cc2F)cc(N)c1Cl [Compound 159] | 95 to 100% |
| Nc1c(Cl)c(C(=O)O)nc(-c2ccc(I)cc2)c1Cl [Compound 173] | 75 to 84% |

Same assay, conditions: post-emergence, 504 h; ECHSS: barnyardgrass (Echinochloa crus-galli), junglerice (Echinochloa colonum); 70 g ai/ha; read-out: Visual Growth Reduction (%) 21 Days After Application ECHSS

| Structure (SMILES) | pest or weed control at 70 g/ha |
| --- | --- |
| COC(=O)c1nc(-c2ccc(I)cc2F)cc(N)c1Cl [Compound 159] | 95 to 100% |
| Nc1c(Cl)c(C(=O)O)nc(-c2ccc(I)cc2)c1Cl [Compound 173] | 95 to 100% |

Same assay, conditions: post-emergence, 504 h; LEFSS: sprangletop (Leptochloa chinensis, Leptochloa dubia); 35 g ai/ha; read-out: Visual Growth Reduction (%) 21 Days After Application LEFSS

| Structure (SMILES) | pest or weed control at 35 g/ha |
| --- | --- |
| COC(=O)c1nc(-c2ccc(I)cc2F)cc(N)c1Cl [Compound 159] | 95 to 100% |
| Nc1c(Cl)c(C(=O)O)nc(-c2ccc(I)cc2)c1Cl [Compound 173] | 45 to 59% |

Same assay, conditions: post-emergence, 504 h; LEFSS: sprangletop (Leptochloa chinensis, Leptochloa dubia); 70 g ai/ha; read-out: Visual Growth Reduction (%) 21 Days After Application LEFSS

| Structure (SMILES) | pest or weed control at 70 g/ha |
| --- | --- |
| COC(=O)c1nc(-c2ccc(I)cc2F)cc(N)c1Cl [Compound 159] | 95 to 100% |
| Nc1c(Cl)c(C(=O)O)nc(-c2ccc(I)cc2)c1Cl [Compound 173] | 95 to 100% |

Same assay, conditions: post-emergence, 504 h; ORYSS: Oryza sativa; 35 g ai/ha; read-out: Visual Growth Reduction (%) 21 Days After Application ORYSS

| Structure (SMILES) | pest or weed control at 35 g/ha |
| --- | --- |
| COC(=O)c1nc(-c2ccc(I)cc2F)cc(N)c1Cl [Compound 159] | 45 to 59% |
| Nc1c(Cl)c(C(=O)O)nc(-c2ccc(I)cc2)c1Cl [Compound 173] | 45 to 59% |

Same assay, conditions: post-emergence, 504 h; ORYSS: Oryza sativa; 70 g ai/ha; read-out: Visual Growth Reduction (%) 21 Days After Application ORYSS

| Structure (SMILES) | pest or weed control at 70 g/ha |
| --- | --- |
| COC(=O)c1nc(-c2ccc(I)cc2F)cc(N)c1Cl [Compound 159] | 60 to 74% |
| Nc1c(Cl)c(C(=O)O)nc(-c2ccc(I)cc2)c1Cl [Compound 173] | 60 to 74% |

Same assay, conditions: post-emergence, 504 h; SCPJU: Japanese bulrush, Scirpus juncoides; 35 g ai/ha; read-out: Visual Growth Reduction (%) 21 Days After Application SCPJU

| Structure (SMILES) | pest or weed control at 35 g/ha |
| --- | --- |
| COC(=O)c1nc(-c2ccc(I)cc2F)cc(N)c1Cl [Compound 159] | 95 to 100% |
| Nc1c(Cl)c(C(=O)O)nc(-c2ccc(I)cc2)c1Cl [Compound 173] | 95 to 100% |

Same assay, conditions: post-emergence, 504 h; SCPJU: Japanese bulrush, Scirpus juncoides; 70 g ai/ha; read-out: Visual Growth Reduction (%) 21 Days After Application SCPJU

| Structure (SMILES) | pest or weed control at 70 g/ha |
| --- | --- |
| COC(=O)c1nc(-c2ccc(I)cc2F)cc(N)c1Cl [Compound 159] | 95 to 100% |
| Nc1c(Cl)c(C(=O)O)nc(-c2ccc(I)cc2)c1Cl [Compound 173] | 95 to 100% |

Same assay, conditions: post-emergence, 504 h; SEBEX: hemp sesbania, Sesbania exaltata; 35 g ai/ha; read-out: Visual Growth Reduction (%) 21 Days After Application SEBEX

| Structure (SMILES) | pest or weed control at 35 g/ha |
| --- | --- |
| COC(=O)c1nc(-c2ccc(I)cc2F)cc(N)c1Cl [Compound 159] | 95 to 100% |
| Nc1c(Cl)c(C(=O)O)nc(-c2ccc(I)cc2)c1Cl [Compound 173] | 95 to 100% |

Same assay, conditions: post-emergence, 504 h; SEBEX: hemp sesbania, Sesbania exaltata; 70 g ai/ha; read-out: Visual Growth Reduction (%) 21 Days After Application SEBEX

| Structure (SMILES) | pest or weed control at 70 g/ha |
| --- | --- |
| COC(=O)c1nc(-c2ccc(I)cc2F)cc(N)c1Cl [Compound 159] | 95 to 100% |
| Nc1c(Cl)c(C(=O)O)nc(-c2ccc(I)cc2)c1Cl [Compound 173] | 95 to 100% |
